The assay deals with T1, Adenosine receptor A1 (Homo sapiens) (UniProt P30542).
T1 sequence (whole entry): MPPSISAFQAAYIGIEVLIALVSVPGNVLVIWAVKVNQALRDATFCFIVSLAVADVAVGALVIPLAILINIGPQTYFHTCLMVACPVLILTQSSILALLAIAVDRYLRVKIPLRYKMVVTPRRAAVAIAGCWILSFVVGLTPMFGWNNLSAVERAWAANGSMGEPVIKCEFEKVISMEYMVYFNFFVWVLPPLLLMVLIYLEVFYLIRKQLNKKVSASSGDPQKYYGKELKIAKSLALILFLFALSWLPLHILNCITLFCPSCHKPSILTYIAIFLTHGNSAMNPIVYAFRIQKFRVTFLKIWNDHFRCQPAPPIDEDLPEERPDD
Put plainly: Binding affinity to recombinant human adenosine receptor A1 expressed in HEK293 cell membranes at 50 to 200 nM after 1 hr by FACS analysis relative to control. In general terms: A flow cytometer gives signals particle by particle.

The structures appear in SMILES notation. Some results are limits rather than exact numbers.

Here are results for one molecule from ChEMBL document CHEMBL4261547, “Bitopic fluorescent antagonists of the A2A adenosine receptor based on pyrazolo[4,3-e][1,2,4]triazolo[1,5-c]pyrimidin-5-amine functionalized congeners” (Medchemcomm, 2017).

Turning to `Nc1nc2c(cnn2CCCc2ccc(OCC(=O)NCCCCNC(=O)CCCCCNC(=O)COc3ccc(/C=C/C4=[N+]5C(=Cc6ccc(-c7cccs7)n6[B-]5(F)F)C=C4)cc3)cc2)c2nc(-c3ccco3)nn12`, the Activity was under 25%.
